Measured values as given in patent US5234936A, “Pyrimidocycloalkanes as a II antagonists” (American Home Products Corporation, priority 1991, dated 1993).

System: A II-infused rat
Assay: antihypertensive action in A II-infused rat model
Assay type: in vivo
Procedure: In accordance with their ability to antagonize angiotensin II, the compounds of this invention show antihypertensive action in the following A II-infused rat model. Rats are anesthetized with Dial-Urethane (0.60 mL/kg, ip) and the trachea cannulated with PE 240. Either one femoral artery and both femoral veins or the carotid artery and the corresponding jugular vein are cannulated with PE 50. If the jugular vein is cannulated, two cannulas are placed in the one vein. The initial portion of the duodenum (just distal to the stomach) is cannulated with PE 50 via a small midline incision. Arterial pressure and heart rate are measured from the arterial cannula. Ten to 15 min are allowed following surgery for stabilization of arterial pressure. Ganglion blockade is then produced by intravenous administration of mecamylamine at 3 mg/kg (1 mL/kg of a 3 mg/mL solution). Ganglion blockade causes a fall in arterial pressure of about 50 mmHg. Mecamylamine is given every 90 min throughout the remainder of the experiment. An A II infusion is then begun into the other venous cannula at 0.25 μg/kg/min (at 9.6 μL/min). The A II infusion returns arterial pressure to or slightly above the control level. Once arterial pressure has stabilized with the A II infusion, baseline values for means arterial pressure (MAP) and heart rate are taken. […]

| Structure (SMILES) | fall in arterial pressure on ganglion blockade (mecamylamine 3 mg/kg intravenous, before A II infusion, anesthetized rats) | average lowering of the A II dependent blood pressure (3 mg/kg id (intraduodenal), one half hour postadministration, ganglion-blocked A II-infused rats) [%] |
| --- | --- | --- |
| CNC1(C)C2CCC(C2)C1(C)C (centres unmarked) [mecamylamine] | about 50 mmHg | – |
| FC(F)(F)c1nc2c(c(NCc3ccc(-c4ccccc4-c4nnn[nH]4)cc3)n1)CCCCC2.O.[K] [Example 5, 6,7,8,9-tetrahydro-N-[[2'-(1H-tetrazol-5-yl)[1,1'-biphenyl]-4-yl]methyl]-2-(trifluoromethyl)-5H-cycloheptapyrimidin-4-amine potassium salt hydrate] | – | 45 |
